This is an account of results in patent publication US9259399B2, “Targeting CDK4 and CDK6 in cancer therapy” (Cornell University, priority 2007, dated 2016).

The test system of one series is HMCLs, including MM1.S. As to the kind of experiment: BrdU-uptake and DNA content (cell cycle) in human myeloma cell lines. It counts as cell-based. As to conditions: for proportion of cells in S phase: PD 0332991 0.25 μM 24 h. As for the experimental part: Cells were incubated with 5-bromo-2-deoxyuridine (BrdU, 5 μg/ml; Sigma) at 37° C. for 30 min (HMCLs) or 16 h (BMM cells). Cells were fixed with 70% ethanol overnight at 4° C., incubated with 0.4 mg/ml pepsin for 20 min at room temperature and 2N HCl for 10 min at 37° C. Samples were washed with 50 mM sodium borate (pH 8.5) and then 0.1% BSA/PBS. To detect BrdU, cells were incubated with a FITC-conjugated anti-BrdU mouse mAb (Roche Diagnostics, Pleasanton, Calif.) for 30 min at room temperature. For DNA content analysis, cells were incubated further with 50 μg/ml propidium iodide and 100 U/ml ribonuclease A (Sigma) for 30 min at 37° C. Samples were analyzed by flow cytometry.

The test system of the next series is Luc+GFP+MM1.S cells. Briefly: NOD/SCID xenograft human myeloma model (bioluminescence imaging). Conditions: for MMD in human myeloma cells vs mouse BM cells in vivo: bortezomib 0.25 mg/kg, with or without PD 0332991 150 mg/kg pretreatment; for tumor development (BLI): day 8, PD 0332991 150 mg/kg daily 3 days, bortezomib 0.25 mg/kg days 4 and 7. The format is in vivo, NOD/SCID mice. (In general: Xenograft models place foreign cells or tissue in a host animal.)

In series [1] the test system is human osteoclast cultures. Briefly: Osteoclast formation from bone marrow cells of multiple myeloma patients. It counts as cell-based. The procedure: Non-adherent mononuclear bone marrow cells from multiple myeloma patients were cultured in the presence of macrophage colony stimulating factor (M-CSF) and Receptor Activator for Nuclear Factor κ[…] (RANKL) for three weeks.

Another series relates to IL-6Rα, gp130, Stat3. Briefly: IL-6 signaling in myeloma cells (surface IL-6Rα, gp130, p-Stat3). It counts as cell-based, human. As to conditions: for expression of surface IL-6Rα (gp80): PD 0332991 0.25 μM, bortezomib 4 nM; for surface gp130: PD 0332991, bortezomib 4 nM, or both. As for the experimental part: Viable cells were obtained by Ficoll density centrifugation (GE Healthcare, Piscataway, N.J.). Cytosolic and mitochondrial fractions were isolated as described (Yang et al., 1997). Whole cells or purified mitochondria were lysed in a buffer containing 10 mM Tris-HCl, pH 7.5, 150 mM NaCl, 5 mM EDTA, 1% Triton X-100, and protease inhibitors. For detection of phosphorylated Stat3, cells were lysed in a buffer containing 20 mM Tris, pH 7.5, 150 mM NaCl, 1 mM EDTA, 1 mM EGTA, 1% Triton X-100, 2.5 mM sodium pyrophosphate, 1 mM β-glycerophosphate, 1 mM Na3VO4, and protease inhibitors. Immunoblotting was performed as described in Huang et al. (2004). Signals were developed with the SuperSignal West Femto Maximum Sensitivity Substrate (Pierce Biotechnology, Rockford, Ill.).

The next series relates to MM1.S cells. As to the kind of experiment: Apoptosis pathway in myeloma cells (caspase/PARP cleavage, Bcl-2 family mRNA and protein, Smac release). The format is cell-based, human. As for the experimental part:
Total RNA was isolated using the TRIzol reagent (Invitrogen). […] Reactions were carried out in triplicate in the ABI PRISM 7900 HT Sequence Detection System. The relative amount of products was determined by the comparative Ct method according to the manufacturer's instructions. Viable cells were obtained by Ficoll density centrifugation (GE Healthcare, Piscataway, N.J.). Cytosolic and mitochondrial fractions were isolated as described (Yang et al., 1997). Whole cells or purified mitochondria were lysed in a buffer containing 10 mM Tris-HCl, pH 7.5, 150 mM NaCl, 5 mM EDTA, 1% Triton X-100, and protease inhibitors. For detection of phosphorylated Stat3, cells were lysed in a buffer containing 20 mM Tris, pH 7.5, 150 mM NaCl, 1 mM EDTA, 1 mM EGTA, 1% Triton X-100, 2.5 mM sodium pyrophosphate, 1 mM β-glycerophosphate, 1 mM Na3VO4, and protease inhibitors. Immunoblotting was performed as described in Huang et al. (2004). Signals were developed with the SuperSignal West Femto Maximum Sensitivity Substrate (Pierce Biotechnology, Rockford, Ill.). For immunoprecipitation, lysate (50 μg of protein) was precleared with 20 μl of Protein G PLUS-agarose beads (Santa Cruz Biotechnology, Santa Cruz, Calif.) and incubated with rabbit anti-Bim, anti Bcl-XL (Cell signaling Technology), anti-Mcl1 (Santa Cruz), anti-Bak (Sigma) or mouse anti-Bcl-2 (DakoCytomation, Carpinteria, Calif.) overnight at 4° C. The immunocomplexes were collected by incubation with Protein G PLUS-agarose beads (Santa Cruz) and centrifugation. These immunocomplex samples were then analyzed by immunoblotting.

The subject of series [2] is CDK4 and CDK6. As to the kind of experiment: Phase I/II clinical trial in multiple myeloma. The format is in vivo. Conditions: within the tolerable dose in humans; preliminary data.
Series [3] concerns at least thirty-eight other types of kinases, including CDK2. Conditions: at concentrations below 5 μM, at least 38 other kinases; cited from earlier work.
Series [4] deals with CDK4 and CDK6. Conditions: cited from earlier work.
Series [5] relates to myeloma, AML and solid tumor xenograft. As to conditions: cited from earlier work.
Series [6] deals with CAG NOD/SCID myeloma model. As to conditions: 150 mg/kg; by day 9; cited from earlier work.
For series [7], the system named is retinoblastoma (Rb)-positive tumor cells. As to conditions: cited from earlier work.
A further series deals with CDK4/6. As to conditions: mantle cell lymphoma and acute myeloid leukemia cells ex vivo; cited from earlier work.
The test system of series [8] is primary CD138+ human BM myeloma (BMM) cells. Briefly: Killing of primary myeloma cells co-cultured with HS-5 stromal cells. Conditions: for reduction of live BMM cells: 24 hours ex vivo, PD 0332991 1-2 μM.
The subject of series [9] is MM1.S and MM1.R human myeloma cell lines. As to the kind of experiment: Cytotoxic killing of myeloma cell lines (viability, mitochondrial membrane depolarization).

“Also recorded” adds a separate entry of the source. Residues, ends and D or L forms follow the SMILES beside them. *: point of attachment. Cbz = O=C(OCc1ccccc1)*; CH2F = FC*

As a reminder, the IC50 is the concentration that gives 50% inhibition. On to `CC(=O)c1c(C)c2cnc(Nc3ccc(N4CCNCC4)cn3)nc2n(C2CCCC2)c1=O` [PD 0332991, 6-acetyl-8-cyclopentyl-5-methyl-2-[5-piperazin-1-yl-pyridin-2-ylamino)-8H-pyrido[2,3-d]pyrimidin-7-one], for which the “time G1 arrest and synchronous S phase entry were maintained in the absence of apoptosis” value with HMCLs, including MM1.S (MM1.S cells cultured with PD 0332991) was “at least 6 days”. Moreover, in the series with HMCLs, including MM1.S (PD 0332991 0.25 μM), the G1 arrest result is reported as “complete G1 arrest; also recorded: marked accumulation of G1 cells”. The “proportion of cells in S phase” value in the series with HMCLs, including MM1.S (12 hours after removal) was found to be 65%. Besides, in the series with HMCLs, including MM1.S (18 hours after removal), the “proportion of cells in S phase” value amounted to 67%. In addition, in the series with Luc+GFP+MM1.S cells, the “MMD in human myeloma cells vs mouse BM cells in vivo” value is “augmented” and the “tumor development (BLI)” value was “only modestly reduced”. The compound further came in with a 50% inhibitory concentration (IC50) in series [1] (Homo sapiens, Osteoclast, 504 h, treatment for 3 weeks) of 50 nM. Besides, the “time course of treatment on osteoclast formation” value in [1] (first week, but not second or third week) is on record as “sufficient to inhibit osteoclast formation”. Moreover, in the series on IL-6Rα, gp130, Stat3, the Stat3 protein entry is listed as “reduction of Stat3 protein”, the “expression of surface IL-6Rα (gp80)” value was “virtually eliminated” and the “surface gp130” value was “only modestly”. In the series on MM1.S cells, the “activation of caspase-8 by bortezomib after prior PD 0332991 treatment” value is “similarly augmented”. Besides, the “Noxa mRNA and protein” value in the series on MM1.S cells (following PD 0332991-induced G1 arrest) is listed as “no longer detectable”. In addition, the “inhibition of CDK4 and CDK6 and tumor cell division in patients” value in the series with CDK4 and CDK6 [2] was “completely inhibits”. Besides, in series [3], the “activity against other kinases” value was “does not cross react; also recorded: little or no activity”. The IC50 with CDK4 and CDK6 [4] (freshly isolated primary human BMM cells and HMCLs ex vivo, read-out: IC50, inhibition of CDK4 and CDK6) is 60 nM. Besides, in the series on CDK4 and CDK6 [4] (primary BMM cells and HMCLs), the “cell cycle outcome of CDK4/CDK6 inhibition” value is recorded as “exclusive G1 arrest unaccompanied by apoptosis; also recorded: exclusive G1 arrest in the absence of apoptosis”. Besides, in series [5] (after discontinuation of PD 0332991), the “myeloma tumor growth upon discontinuation” value was “resumed upon discontinuation”. In series [5] (myeloma, AML and solid tumor xenograft models), the tumor growth result is listed as “suppressed tumor growth”. Moreover, the tumor burden result in series [6] is recorded as “reduced tumor burden profoundly”. The anti-proliferative activity result in [7] is given as “potent anti-proliferative agent”. For the same compound, in the series on CDK4/6, the “inhibition of CDK4/6” value is “effectively inhibited”. Moreover, the “reduction of live BMM cells” value in [8] is “greater”. Moreover, the “sensitization of BMM cells from bortezomib-refractory patients (MM10)” value in series [8] (PD 0332991 pretreatment 4 hours) is recorded as “sufficient to sensitize”. Besides, the “sensitization of other bortezomib-refractory BMM cells (MM 8, MM 9)” value in series [8] (PD 0332991 pretreatment 24 hours) is on record as “susceptible to bortezomib killing”. Besides, in [8] (pretreatment 4-24 hours), the “bortezomib killing after PD 0332991 pretreatment” value is reported as “markedly augmented”. Also, in series [9] (MM1.R cells, 24 hours), the “killing of Dex-resistant MM1.R cells by low dose bortezomib after PD 0332991” value is on record as “virtual eradication of cells”. The “bortezomib killing after prior G1 arrest” value in series [9] (PD 0332991 24 h, then bortezomib at high dose (250 nM) for 1 h, analysed 6 h later) was “profoundly enhanced”. The “killing by low dose bortezomib added after PD 0332991 vs concurrently” value in [9] (bortezomib 2-6 nM added 24 or 48 hours after PD 0332991) is given as “greater”. Moreover, the “MMD and viability, bortezomib added upon removal of PD 0332991 vs unsynchronized cells” value in series [9] (bortezomib 4 or 6 nM, continuous) was “greater MMD and loss of viability”. The “bortezomib killing during synchronous G1-S transition” value in series [9] (bortezomib pulse at 4 hours post PD 0332991 removal) was “augmented further”. For the same compound, the “MMD and cytotoxic killing by low dose dexamethasone after G1 arrest” value in series [9] (dexamethasone 5-50 nM) is recorded as “augmented”.
`COC(=O)C[C@H](NC(=O)[C@H](C)NC(=O)[C@@H](NC(=O)OCc1ccccc1)C(C)C)C(=O)CF` [ZVAD-FMK] (Cbz-Val-Ala-Asp(OMe)-CH2F): the “killing by PD-B in the presence of pan-caspase inhibitor” value with MM1.S cells is “completely inhibited”.
As to `CC(C)C[C@H](NC(=O)[C@H](Cc1ccccc1)NC(=O)c1cnccn1)B(O)O` [bortezomib], in the series on HMCLs, including MM1.S (bortezomib 6 nM alone), the “cell cycle effect of bortezomib alone” value is “striking loss of cells in the S phase”. Moreover, in the series on Luc+GFP+MM1.S cells, the “MMD in human myeloma cells vs mouse BM cells in vivo” value is listed as “differentially induced” and the “tumor development (BLI)” value is on record as “only modestly reduced”. For the same compound, in the series on IL-6Rα, gp130, Stat3, the “expression of surface IL-6Rα (gp80)” value was “did not vary” and the “surface gp130” value was “only modestly”. Moreover, the “TRAIL mRNA” value in the series on MM1.S cells (q-RT-PCR) was “marginal increase”. Besides, the “Bim and MCL-1 mRNAs” value in the series with MM1.S cells (q-RT-PCR, bortezomib 4 nM 12 h, with or without PD 0332991 0.25 μM 24 h) is given as “coordinately elevated”. The “reduction of live BMM cells” value in series [8] is recorded as “greater”.
